Laboratory results from BindingDB's records for PubMed 8078486 (Eli Lilly, 1994).

What was measured:
[1] = target: 5-hydroxytryptamine receptor 2B (Homo sapiens, UniProt P41595)
[2] = target: 5-hydroxytryptamine receptor 2B (Rattus norvegicus, UniProt P30994)
5-hydroxytryptamine receptor 2B (Rattus norvegicus, UniProt P30994), sequence (P30994 whole entry): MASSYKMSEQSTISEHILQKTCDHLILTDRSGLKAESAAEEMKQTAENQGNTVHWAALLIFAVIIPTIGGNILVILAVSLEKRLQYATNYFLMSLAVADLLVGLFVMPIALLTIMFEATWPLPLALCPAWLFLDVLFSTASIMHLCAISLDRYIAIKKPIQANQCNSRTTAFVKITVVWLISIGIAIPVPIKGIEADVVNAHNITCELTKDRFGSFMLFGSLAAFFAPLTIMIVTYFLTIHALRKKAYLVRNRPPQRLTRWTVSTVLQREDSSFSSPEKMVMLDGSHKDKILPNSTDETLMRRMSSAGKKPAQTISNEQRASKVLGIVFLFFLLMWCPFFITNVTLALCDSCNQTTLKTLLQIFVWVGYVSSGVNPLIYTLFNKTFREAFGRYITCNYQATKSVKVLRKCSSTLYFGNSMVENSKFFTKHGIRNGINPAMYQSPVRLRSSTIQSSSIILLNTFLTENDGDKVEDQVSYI

5-hydroxytryptamine receptor 2B (Homo sapiens, UniProt P41595), sequence (P41595 whole entry): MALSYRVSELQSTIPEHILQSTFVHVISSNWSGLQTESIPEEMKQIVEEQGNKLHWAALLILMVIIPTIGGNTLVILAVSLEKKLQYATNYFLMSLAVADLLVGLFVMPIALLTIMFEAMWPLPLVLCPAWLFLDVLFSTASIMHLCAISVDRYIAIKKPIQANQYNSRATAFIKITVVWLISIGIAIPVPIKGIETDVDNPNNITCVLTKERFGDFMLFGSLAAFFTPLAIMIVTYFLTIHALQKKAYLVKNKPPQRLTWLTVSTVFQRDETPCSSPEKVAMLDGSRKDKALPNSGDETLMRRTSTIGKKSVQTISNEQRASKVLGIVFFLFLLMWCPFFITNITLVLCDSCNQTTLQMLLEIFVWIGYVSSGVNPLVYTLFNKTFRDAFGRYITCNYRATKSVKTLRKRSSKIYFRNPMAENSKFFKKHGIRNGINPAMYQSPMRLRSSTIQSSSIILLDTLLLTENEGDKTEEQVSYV

O=C(CCCN1CCC2(CC1)C(=O)NCN2c1ccccc1)c1ccc(F)cc1 [8-[4-(4-fluorophenyl)-4-oxidanylidene-butyl]-1-phenyl-1,3,8-triazaspiro[4.5]decan-4-one]
Ki [1]: 0.697 µM

COc1cc(CC(C)N)c(OC)cc1I (centres undefined) [[125I]2,5-dimethoxy-4-iodoamphetamine]
Ki [2]: 0.0266 µM | Ki [1]: 0.0199 µM

Cn1cc(CCN)c2cc(O)ccc21 [5-HT,omega-N-Me]
Ki [1]: 0.0119 µM
